Laboratory results reported in ChEMBL document CHEMBL3784917, “Recent Progress in Histone Demethylase Inhibitors” (J Med Chem, 2016).
Blank lines part the entries; values can stand above or below the compound they belong to.

Legend:
[1] = biological target: T1, Lysine-specific demethylase 3A (Homo sapiens, UniProt Q9Y4C1); assay: Inhibition of recombinant human N-terminal FLAG-tagged KDM3A (2 to 1322 residues) expressed in baculovirus infected sf9 cells using biotin-H3K9me as substrate preincubated for 10 mins followed by substrate addition measured after 10 mins by AlphaLisa assay
T1 sequence (Q9Y4C1 whole entry): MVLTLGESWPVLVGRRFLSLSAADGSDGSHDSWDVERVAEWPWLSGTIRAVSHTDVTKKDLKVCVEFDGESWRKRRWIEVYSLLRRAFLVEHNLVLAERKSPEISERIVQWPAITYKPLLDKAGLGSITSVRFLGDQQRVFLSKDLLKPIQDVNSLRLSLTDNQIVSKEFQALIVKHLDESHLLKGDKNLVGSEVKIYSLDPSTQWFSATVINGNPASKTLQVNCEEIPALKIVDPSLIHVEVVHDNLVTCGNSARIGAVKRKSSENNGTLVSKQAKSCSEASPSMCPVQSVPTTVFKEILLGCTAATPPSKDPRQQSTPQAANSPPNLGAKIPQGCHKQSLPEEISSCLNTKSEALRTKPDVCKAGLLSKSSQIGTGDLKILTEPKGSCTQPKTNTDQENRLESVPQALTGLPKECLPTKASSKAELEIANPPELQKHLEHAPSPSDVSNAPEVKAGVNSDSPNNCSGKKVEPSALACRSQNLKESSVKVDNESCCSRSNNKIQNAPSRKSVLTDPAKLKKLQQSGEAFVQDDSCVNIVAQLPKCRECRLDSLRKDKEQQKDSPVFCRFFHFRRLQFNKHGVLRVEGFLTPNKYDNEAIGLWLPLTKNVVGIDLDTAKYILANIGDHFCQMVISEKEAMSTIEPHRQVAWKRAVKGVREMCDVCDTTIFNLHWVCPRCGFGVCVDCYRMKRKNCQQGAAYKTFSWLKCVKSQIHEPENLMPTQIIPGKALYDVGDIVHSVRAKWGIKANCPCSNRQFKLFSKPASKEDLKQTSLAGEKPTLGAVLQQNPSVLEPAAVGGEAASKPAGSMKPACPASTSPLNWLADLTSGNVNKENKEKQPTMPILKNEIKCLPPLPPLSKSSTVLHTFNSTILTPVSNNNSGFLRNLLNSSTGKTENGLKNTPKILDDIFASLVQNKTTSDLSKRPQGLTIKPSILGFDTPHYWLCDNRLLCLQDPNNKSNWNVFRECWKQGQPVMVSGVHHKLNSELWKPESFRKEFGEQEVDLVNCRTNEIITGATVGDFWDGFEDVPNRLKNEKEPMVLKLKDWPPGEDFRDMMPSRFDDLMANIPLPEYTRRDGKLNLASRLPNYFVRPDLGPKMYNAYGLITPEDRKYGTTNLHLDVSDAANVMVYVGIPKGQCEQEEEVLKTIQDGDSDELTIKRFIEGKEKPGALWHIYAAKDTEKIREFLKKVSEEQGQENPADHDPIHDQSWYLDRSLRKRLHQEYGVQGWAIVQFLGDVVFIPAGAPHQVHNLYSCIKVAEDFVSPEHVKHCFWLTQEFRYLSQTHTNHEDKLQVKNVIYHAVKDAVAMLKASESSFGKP

[2] = Antiproliferative activity against human BT474 cells assessed as reduction in cell viability after 120 hrs by ATPlite assay; format: functional, cell-based; conditions: BT-474, 120 h
[3] = biological target: Lysine-specific demethylase 5B (Homo sapiens, UniProt Q9UGL1); assay: Inhibition of KDM5B in human U2OS cells assessed as reduction in demethylation of H3K4me3 after 20 hrs by Hoechst 33342 staining based immunofluorescence assay; format: cell-based
[4] = biological target: T2, Lysine-specific demethylase 6B (Homo sapiens, UniProt O15054); assay: Inhibition of KDM6B (unknown origin) after 24 hrs by alphascreen assay
Egl nine homolog 1 [5] = biological target: T3, Egl nine homolog 1 (Homo sapiens, UniProt Q9GZT9); assay: Inhibition of PHD2 catalytic domain (unknown origin) after 24 hrs by alphascreen assay
[6] = biological target: T4, Lysine-specific demethylase 4A (Homo sapiens, UniProt O75164)
T4 sequence (O75164 whole entry): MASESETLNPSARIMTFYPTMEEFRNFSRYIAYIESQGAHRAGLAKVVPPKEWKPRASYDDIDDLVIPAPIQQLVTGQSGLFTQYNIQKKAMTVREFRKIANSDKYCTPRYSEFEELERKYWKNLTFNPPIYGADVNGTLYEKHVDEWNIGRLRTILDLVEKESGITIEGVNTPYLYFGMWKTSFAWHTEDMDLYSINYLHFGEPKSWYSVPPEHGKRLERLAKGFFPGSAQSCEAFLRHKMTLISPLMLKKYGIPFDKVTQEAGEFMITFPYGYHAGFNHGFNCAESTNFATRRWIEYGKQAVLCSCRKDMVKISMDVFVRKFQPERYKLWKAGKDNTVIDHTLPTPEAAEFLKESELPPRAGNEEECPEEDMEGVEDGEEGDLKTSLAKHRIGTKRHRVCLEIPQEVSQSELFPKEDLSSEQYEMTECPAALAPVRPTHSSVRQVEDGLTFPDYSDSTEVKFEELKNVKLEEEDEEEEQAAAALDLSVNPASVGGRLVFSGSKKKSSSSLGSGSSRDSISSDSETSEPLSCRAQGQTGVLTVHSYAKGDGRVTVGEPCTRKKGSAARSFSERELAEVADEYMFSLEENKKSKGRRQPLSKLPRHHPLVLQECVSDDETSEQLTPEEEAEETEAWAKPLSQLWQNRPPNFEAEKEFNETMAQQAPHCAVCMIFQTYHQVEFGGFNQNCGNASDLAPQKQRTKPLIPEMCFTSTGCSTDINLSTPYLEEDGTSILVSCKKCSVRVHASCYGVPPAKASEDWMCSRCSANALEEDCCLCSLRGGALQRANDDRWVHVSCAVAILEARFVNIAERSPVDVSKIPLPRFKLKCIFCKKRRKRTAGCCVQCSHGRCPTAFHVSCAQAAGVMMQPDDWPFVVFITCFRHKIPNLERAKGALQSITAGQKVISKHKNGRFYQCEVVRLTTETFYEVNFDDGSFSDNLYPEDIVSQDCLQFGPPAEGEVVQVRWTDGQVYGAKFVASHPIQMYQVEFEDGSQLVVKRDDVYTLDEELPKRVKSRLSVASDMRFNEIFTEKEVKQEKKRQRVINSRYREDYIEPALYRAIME

[7] = biological target: Lysine-specific demethylase 5C (Homo sapiens, UniProt P41229); assay: Inhibition of KDM5C (unknown origin) preincubated for 15 mins followed by histone substrate addition measured after 1 hr by alphascreen assay
[8] = biological target: T2, Lysine-specific demethylase 6B; assay: Inhibition of KDM6B (unknown origin) preincubated for 15 mins followed by histone substrate addition measured after 1 hr by alphascreen assay
Egl nine homolog 1 [9] = biological target: T3, Egl nine homolog 1; assay: Inhibition of PHD2 (unknown origin) preincubated for 15 mins followed by histone substrate addition measured after 1 hr by alphascreen assay
[10] = biological target: T4, Lysine-specific demethylase 4A; assay: Inhibition of KDM4A in human MCF7 cells assessed as increase in H3K9me3 level after 24 hrs by DAPI staining based immunofuorescence assay; format: cell-based

T3 sequence (Q9GZT9 whole entry, the tested form may be a part): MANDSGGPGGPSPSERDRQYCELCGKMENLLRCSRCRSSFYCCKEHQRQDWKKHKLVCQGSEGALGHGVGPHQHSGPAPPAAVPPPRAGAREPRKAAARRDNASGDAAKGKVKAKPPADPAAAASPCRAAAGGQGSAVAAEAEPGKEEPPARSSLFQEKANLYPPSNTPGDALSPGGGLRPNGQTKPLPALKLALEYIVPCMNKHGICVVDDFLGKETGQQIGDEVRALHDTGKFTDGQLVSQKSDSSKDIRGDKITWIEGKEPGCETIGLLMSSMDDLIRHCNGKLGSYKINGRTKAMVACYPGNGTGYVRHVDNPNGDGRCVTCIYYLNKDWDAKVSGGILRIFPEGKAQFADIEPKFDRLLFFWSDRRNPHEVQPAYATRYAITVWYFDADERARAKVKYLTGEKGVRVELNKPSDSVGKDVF
T2 sequence (O15054 whole entry, the tested form may be a part): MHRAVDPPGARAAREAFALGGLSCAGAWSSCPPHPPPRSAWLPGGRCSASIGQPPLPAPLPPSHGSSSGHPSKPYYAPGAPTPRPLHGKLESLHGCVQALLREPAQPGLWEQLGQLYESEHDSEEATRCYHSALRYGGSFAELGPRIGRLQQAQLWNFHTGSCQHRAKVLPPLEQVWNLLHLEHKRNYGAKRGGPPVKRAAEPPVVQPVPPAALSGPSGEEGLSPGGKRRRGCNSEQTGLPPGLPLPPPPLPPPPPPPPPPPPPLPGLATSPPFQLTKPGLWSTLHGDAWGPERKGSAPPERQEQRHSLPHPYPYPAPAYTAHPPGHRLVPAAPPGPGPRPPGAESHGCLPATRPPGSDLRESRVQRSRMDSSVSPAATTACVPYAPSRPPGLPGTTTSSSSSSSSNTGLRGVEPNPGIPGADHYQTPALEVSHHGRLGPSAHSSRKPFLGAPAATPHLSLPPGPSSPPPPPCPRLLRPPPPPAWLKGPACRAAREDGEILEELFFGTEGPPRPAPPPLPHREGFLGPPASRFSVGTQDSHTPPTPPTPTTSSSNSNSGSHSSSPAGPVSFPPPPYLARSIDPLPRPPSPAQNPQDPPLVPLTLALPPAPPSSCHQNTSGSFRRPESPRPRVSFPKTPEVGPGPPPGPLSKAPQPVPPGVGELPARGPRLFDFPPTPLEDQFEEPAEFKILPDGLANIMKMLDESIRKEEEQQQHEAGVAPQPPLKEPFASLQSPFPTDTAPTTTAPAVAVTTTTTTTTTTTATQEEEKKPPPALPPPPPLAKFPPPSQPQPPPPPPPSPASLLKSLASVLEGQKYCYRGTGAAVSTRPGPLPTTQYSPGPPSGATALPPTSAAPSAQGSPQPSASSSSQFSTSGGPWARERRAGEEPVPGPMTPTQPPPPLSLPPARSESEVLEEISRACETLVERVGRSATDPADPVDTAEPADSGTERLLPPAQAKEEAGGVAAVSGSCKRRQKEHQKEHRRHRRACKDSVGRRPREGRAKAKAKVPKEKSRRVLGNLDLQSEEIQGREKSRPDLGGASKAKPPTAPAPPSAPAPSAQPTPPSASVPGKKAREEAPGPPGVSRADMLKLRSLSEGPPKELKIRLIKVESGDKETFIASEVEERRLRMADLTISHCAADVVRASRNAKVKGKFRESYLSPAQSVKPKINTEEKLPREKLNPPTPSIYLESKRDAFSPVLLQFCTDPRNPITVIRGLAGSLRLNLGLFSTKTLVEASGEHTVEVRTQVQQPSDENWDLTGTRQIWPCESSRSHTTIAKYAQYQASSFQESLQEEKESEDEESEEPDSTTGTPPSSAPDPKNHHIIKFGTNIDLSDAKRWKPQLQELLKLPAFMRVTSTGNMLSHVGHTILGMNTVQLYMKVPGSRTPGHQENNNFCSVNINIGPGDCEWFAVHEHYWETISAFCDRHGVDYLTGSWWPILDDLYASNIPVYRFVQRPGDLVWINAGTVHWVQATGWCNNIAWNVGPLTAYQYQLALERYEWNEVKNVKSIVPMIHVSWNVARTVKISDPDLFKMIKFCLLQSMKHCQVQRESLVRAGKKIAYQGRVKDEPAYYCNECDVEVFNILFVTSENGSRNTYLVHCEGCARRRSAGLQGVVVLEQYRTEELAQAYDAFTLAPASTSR
Sequence of Lysine-specific demethylase 5B (Q9UGL1 whole entry): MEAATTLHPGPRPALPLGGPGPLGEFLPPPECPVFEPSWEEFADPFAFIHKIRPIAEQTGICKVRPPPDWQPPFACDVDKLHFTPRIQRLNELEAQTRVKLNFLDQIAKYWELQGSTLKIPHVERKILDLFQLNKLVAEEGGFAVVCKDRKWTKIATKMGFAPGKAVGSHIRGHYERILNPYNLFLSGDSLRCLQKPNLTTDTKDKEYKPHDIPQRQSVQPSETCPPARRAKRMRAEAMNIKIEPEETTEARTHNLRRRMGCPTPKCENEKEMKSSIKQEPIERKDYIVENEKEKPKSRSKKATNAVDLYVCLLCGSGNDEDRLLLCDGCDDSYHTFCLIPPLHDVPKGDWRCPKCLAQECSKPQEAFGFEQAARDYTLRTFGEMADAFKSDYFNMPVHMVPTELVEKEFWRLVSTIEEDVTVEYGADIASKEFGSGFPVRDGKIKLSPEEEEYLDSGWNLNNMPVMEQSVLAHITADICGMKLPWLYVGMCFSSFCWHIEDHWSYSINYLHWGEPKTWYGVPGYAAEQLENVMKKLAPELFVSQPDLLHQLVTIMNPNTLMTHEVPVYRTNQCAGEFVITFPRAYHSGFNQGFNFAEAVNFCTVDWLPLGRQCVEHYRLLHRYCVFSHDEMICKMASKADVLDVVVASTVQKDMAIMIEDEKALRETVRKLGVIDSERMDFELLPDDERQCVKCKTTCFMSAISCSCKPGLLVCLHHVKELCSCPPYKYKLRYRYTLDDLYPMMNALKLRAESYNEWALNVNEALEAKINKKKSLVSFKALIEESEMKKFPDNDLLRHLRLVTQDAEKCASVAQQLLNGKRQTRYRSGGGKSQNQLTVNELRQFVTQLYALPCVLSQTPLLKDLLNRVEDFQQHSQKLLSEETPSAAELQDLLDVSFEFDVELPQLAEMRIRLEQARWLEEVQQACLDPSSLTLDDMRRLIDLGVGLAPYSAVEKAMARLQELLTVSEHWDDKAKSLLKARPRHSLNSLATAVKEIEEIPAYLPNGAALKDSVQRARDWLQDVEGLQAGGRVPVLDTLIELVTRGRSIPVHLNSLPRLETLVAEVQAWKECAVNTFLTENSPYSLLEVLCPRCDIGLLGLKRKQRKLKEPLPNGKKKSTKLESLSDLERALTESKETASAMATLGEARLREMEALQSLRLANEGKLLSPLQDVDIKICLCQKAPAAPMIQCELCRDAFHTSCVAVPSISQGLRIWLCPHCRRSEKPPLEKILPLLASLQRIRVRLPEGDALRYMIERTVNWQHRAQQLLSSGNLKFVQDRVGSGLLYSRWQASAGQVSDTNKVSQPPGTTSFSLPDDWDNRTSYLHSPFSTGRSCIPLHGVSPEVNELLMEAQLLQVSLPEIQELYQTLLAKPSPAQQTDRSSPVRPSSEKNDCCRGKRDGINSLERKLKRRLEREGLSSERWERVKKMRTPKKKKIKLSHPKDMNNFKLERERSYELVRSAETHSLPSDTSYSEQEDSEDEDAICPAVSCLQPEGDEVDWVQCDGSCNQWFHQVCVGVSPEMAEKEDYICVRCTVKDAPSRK

- IC50 [1]: > 2.5 µM
Structure (SMILES): CCN(CC)CCCCNCc1cc(C=O)ccn1
- EC50 [2]: < 0.25 µM

- IC50 [3]: 1 µM
Structure (SMILES): CCN(CCN(C)C)C(=O)CNCc1cc(C(=O)O)ccn1

- IC50 [4]: > 100 µM
- IC50 (Egl nine homolog 1 [5]): > 100 µM
- EC50 [6]: 3.8 µM
Structure (SMILES): CCCCCCCCOC(=O)c1ccc(O)c2ncccc12

- IC50 [1]: > 2.5 µM
Structure (SMILES): CCN(CCN(C)C)C(=O)CNCc1cc(CNC(=O)C(F)(F)F)ccn1

- IC50 [7]: 178 µM
- IC50 [8]: 106 µM
- IC50 (Egl nine homolog 1 [9]): 96 µM
- EC50 [10]: 12 µM
Structure (SMILES): Cc1ccsc1C(NC(=O)c1ccccc1)c1cc(Cl)c2cccnc2c1O (racemic)
